Data as given in ChEMBL document CHEMBL5370629, “Probing the Interactions of Thiazole Abietane Inhibitors with the Human Serine Hydrolases ABHD16A and ABHD12” (ACS Med Chem Lett, 2023).

Legend:
[1] = biological target: T1, ABHD12 (lysophosphatidylserine lipase) (Homo sapiens, UniProt Q8N2K0); experiment: Inhibition of azido-fluorophosphonate probe binding to human ABHD12 expressed in HEK293T cells at 100 uM incubated for 1 hr followed by azido-fluorophosphonate addition and measured after 1 hr by fluorescent Western blotting analysis relative to control; format: toxicity, cell-based; details: HEK293T cells that express human ABHD12, probe azido-fluorophosphonate
T1 sequence (Q8N2K0 whole entry): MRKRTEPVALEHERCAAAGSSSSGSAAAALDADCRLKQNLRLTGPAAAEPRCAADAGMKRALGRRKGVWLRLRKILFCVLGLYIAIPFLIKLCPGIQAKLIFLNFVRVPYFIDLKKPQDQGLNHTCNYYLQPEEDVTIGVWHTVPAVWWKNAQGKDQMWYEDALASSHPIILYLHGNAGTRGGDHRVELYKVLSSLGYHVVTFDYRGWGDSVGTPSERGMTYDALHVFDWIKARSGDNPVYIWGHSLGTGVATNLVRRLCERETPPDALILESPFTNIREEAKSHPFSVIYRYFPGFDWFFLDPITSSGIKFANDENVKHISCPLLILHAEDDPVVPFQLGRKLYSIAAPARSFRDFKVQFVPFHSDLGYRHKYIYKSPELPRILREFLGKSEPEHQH

[2] = biological target: T2, Phosphatidylserine lipase ABHD16A (Homo sapiens) (UniProt O95870); experiment: Inhibition of azido-fluorophosphonate probe binding to human ABHD16A expressed in HEK293T cells at 20 uM incubated for 1 hr followed by azido-fluorophosphonate addition and measured after 1 hr by fluorescent Western blotting analysis relative to control; format: cell-based; details: time 2.0 hrs
T2 sequence (whole entry): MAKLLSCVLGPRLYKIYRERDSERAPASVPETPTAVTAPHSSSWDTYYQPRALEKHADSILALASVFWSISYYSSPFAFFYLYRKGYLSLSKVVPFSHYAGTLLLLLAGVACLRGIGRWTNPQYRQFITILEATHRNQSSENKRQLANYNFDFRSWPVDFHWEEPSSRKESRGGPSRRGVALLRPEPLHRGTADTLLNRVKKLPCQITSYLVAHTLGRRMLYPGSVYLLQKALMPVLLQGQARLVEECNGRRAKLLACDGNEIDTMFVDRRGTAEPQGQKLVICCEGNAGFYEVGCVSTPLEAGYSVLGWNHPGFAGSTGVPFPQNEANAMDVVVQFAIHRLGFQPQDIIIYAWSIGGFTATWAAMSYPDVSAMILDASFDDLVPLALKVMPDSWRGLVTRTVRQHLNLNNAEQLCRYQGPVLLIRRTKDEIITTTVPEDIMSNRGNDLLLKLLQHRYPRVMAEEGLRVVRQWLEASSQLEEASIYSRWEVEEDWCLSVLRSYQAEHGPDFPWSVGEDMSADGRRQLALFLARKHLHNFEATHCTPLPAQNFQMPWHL

[3] = biological target: T1, ABHD12 (lysophosphatidylserine lipase); experiment: Inhibition of azido-fluorophosphonate probe binding to human ABHD12 expressed in HEK293T cells at 20 uM incubated for 1 hr followed by azido-fluorophosphonate addition and measured after 1 hr by fluorescent Western blotting analysis relative to control; format: toxicity, cell-based; details: HEK293T cells that express human ABHD12, probe azido-fluorophosphonate
[4] = biological target: T3, Phosphatidylserine lipase ABHD16A (Mus musculus) (UniProt Q9Z1Q2); experiment: Inhibition of azido-fluorophosphonate probe binding to mouse ABHD16A expressed in HEK293T cells at 200 uM incubated for 1 hr followed by azido-fluorophosphonate addition and measured after 1 hr by fluorescent Western blotting analysis relative to control; format: cell-based; details: time 2.0 hrs
T3 sequence (whole entry): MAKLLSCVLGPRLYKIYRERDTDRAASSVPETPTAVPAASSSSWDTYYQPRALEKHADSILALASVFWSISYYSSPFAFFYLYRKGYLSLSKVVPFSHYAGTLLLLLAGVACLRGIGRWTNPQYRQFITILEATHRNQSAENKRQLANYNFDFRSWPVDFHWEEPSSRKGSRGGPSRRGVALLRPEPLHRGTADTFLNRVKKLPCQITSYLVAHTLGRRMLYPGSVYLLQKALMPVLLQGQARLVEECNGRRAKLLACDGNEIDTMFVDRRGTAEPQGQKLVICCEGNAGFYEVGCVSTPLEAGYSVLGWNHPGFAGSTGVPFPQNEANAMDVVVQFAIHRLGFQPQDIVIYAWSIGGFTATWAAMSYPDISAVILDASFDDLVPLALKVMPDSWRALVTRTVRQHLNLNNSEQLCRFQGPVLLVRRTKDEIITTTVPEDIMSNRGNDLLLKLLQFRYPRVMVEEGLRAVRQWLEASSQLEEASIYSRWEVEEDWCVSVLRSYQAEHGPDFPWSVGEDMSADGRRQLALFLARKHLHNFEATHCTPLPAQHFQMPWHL

[5] = biological target: T2, Phosphatidylserine lipase ABHD16A (Homo sapiens); experiment: Inhibition of azido-fluorophosphonate probe binding to human ABHD16A expressed in HEK293T cells at 100 uM incubated for 1 hr followed by azido-fluorophosphonate addition and measured after 1 hr by fluorescent Western blotting analysis relative to control; format: cell-based; details: time 2.0 hrs
[6] = biological target: T3, Phosphatidylserine lipase ABHD16A (Mus musculus); experiment: Inhibition of azido-fluorophosphonate probe binding to mouse ABHD16A expressed in HEK293T cells at 20 to 100 uM incubated for 1 hr followed by azido-fluorophosphonate addition and measured after 1 hr by fluorescent Western blotting analysis relative to control; format: cell-based; details: dose 20-100 µM, time 2.0 hrs
[7] = biological target: T4, Lysophosphatidylserine lipase ABHD12 (Homo sapiens, UniProt Q8N2K0); experiment: Inhibition of azido-fluorophosphonate probe binding to human ABHD12 expressed in HEK293T cells at 20 to 100 uM incubated for 1 hr followed by azido-fluorophosphonate addition and measured after 1 hr by fluorescent Western blotting analysis; format: toxicity, cell-based; details: 2 h, dose 20-100 µM
T4 sequence (Q8N2K0 whole entry): T1 sequence (Q8N2K0 whole entry)

[8] = biological target: T3, Phosphatidylserine lipase ABHD16A (Mus musculus); experiment: Inhibition of azido-fluorophosphonate probe binding to mouse ABHD16A expressed in HEK293T cells at 20 uM incubated for 1 hr followed by azido-fluorophosphonate addition and measured after 1 hr by fluorescent Western blotting analysis relative to control; format: cell-based; details: time 2.0 hrs

SMILES | inhibition [2] [%] | inhibition [4] [%] | inhibition [5] [%] | inhibition [6] [%] | inhibition [8] [%] | inhibition at 2 h, 100 µM [1] [%] | inhibition at 2 h, 20 µM [3] [%] | inhibition (INH) [7]
COC(=O)[C@]1(C)CCC[C@]2(C)c3cc(-c4csc(C)n4)c(C(C)C)cc3C(=O)C[C@@H]12 | 32.2 | 73.2 | 55.1 |  |  |  |  | 
CC(C)c1cc2c(cc1-c1csc([C@H](C)O)n1)[C@@]1(C)CCCC(C)(C)[C@@H]1CC2 |  |  |  | 34.1 |  |  |  | Not Active
COC(=O)[C@]1(C)CCC[C@]2(C)c3cc(-c4csc(COC(C)=O)n4)c(C(C)C)cc3CC[C@@H]12 |  | 62.9 | 48.4 |  |  |  |  | 
CC(C)c1cc2c(cc1-c1csc([C@H](C)O)n1)[C@@]1(C)CCC[C@@](C)(C(N)=O)[C@@H]1CC2 |  | 59.8 | 37.6 |  |  |  |  | 

More lines, main results first:

inhibition [2] [%] | inhibition [4] [%] | inhibition [5] [%] | inhibition [6] [%] | inhibition [8] [%] | SMILES | inhibition at 2 h, 100 µM [1] [%] | inhibition at 2 h, 20 µM [3] [%] | inhibition (INH) [7]
35.7 | 66.4 | 48 |  |  | COC(=O)[C@]1(C)CCC[C@]2(C)c3cc(-c4csc([C@H](C)O)n4)c(C(C)C)cc3CC[C@@H]12 | 60.9 | 54 | 
33.5 | 83.5 | 45.5 |  | 55.5 | CC(=O)c1nc(-c2cc3c(cc2C(C)C)CC[C@H]2[C@](C)(C(N)=O)CCC[C@]32C)cs1 |  |  | 
